Test system: basilar (cerebral) arteries
Assay: Contractile effects on basilar arteries (suppression of adenosine-induced relaxation of isolated cerebral artery rings)
Design: species or system Dogs
Conditions: isolated dog basilar artery rings relaxed with adenosine; test compound added cumulatively; in comparison with the Vehicle group
From the text: Dogs were anesthetized by intravenous injection of sodium pentobarbital, after which they were euthanized by exsanguination and subjected to craniotomy.
The basilar (cerebral) arteries were removed and cut into rings segments of about 2 mm in width. Each ring segment was fixed with a silk thread to a needle cut into about 2 mm in length. The needle was attached to a holder provided in an Easy-Magnus System (Model no. UC-2; IWASHIYA KISHIMOTO MEDICAL INSTRUMENTS); the ring segments were immersed in a nutritive solution and allowed to stabilize at a resting tension of 0.2 g (1.96 mN) for more than 60 minutes. Into the organ bath (2 mL) of the Easy-Magnus System, the cerebral artery was relaxed by application of 2 μL of 10 mmol/L adenosine aqueous solution. After that, the test compound was added cumulatively; 1 μL of 0.2 mmol/L dimethylsulfoxide solution, 1 μL of 0.4 mmol/L dimethylsulfoxide solution, and 0.7 μL of 2 mmol/L dimethylsulfoxide solution in order (Test compound-added group). Separately, in the same manner as in the Test compound-added group, dimethylsulfoxide alone was cumulatively added in place of the test compound (Vehicle group). The contraction of the cerebral artery was recorded on a recorder (Yokogawa) from an isometric force transducer (Nihon Kohden) connected to the holder, to which the ring was fixed, through a strain-pressure amplifier (Nihon Kohden). […]

## CCn1c(=O)c2c(nc(/C=C/c3ccc(OC)c(OC)c3)n2C)n(CC)c1=O [Compound 2]
  suppression of the adenosine-induced relaxation of the cerebral artery: dose-dependently and significantly suppressed

— patent publication US7763625B2, “Agents for treating migraine” (Kyowa Hakko Kirin Co., Ltd., priority 2004, dated 2010)
